Measurements: PMC3654553, “A PPARγ ligand present in Actinidia fruit (Actinidia chrysantha) is identified as dilinolenoyl galactosyl glycerol” (Bioscience Reports, 2013)

Legend:
[1] = biological target: T1, PPARγ (peroxisome-proliferator-activated receptor γ) (Homo sapiens, UniProt P37231)
T1 construct: gene PPARG
T1 sequence (P37231 231-505 limits assumed): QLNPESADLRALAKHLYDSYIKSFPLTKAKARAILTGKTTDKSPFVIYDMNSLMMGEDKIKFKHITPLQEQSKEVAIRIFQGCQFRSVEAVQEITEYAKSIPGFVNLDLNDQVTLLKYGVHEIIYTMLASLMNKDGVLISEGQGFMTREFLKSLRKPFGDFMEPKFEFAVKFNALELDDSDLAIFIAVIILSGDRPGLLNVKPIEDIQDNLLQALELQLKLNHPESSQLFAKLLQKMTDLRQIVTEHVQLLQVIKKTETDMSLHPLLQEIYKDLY

[2] = biological target: T1, PPARγ (peroxisome-proliferator-activated receptor γ); test: competitive fluorescence polarization of HPLC fraction […], dilution series and time course; type: binding
[3] = biological target: T1, PPARγ (peroxisome-proliferator-activated receptor γ); test: competitive fluorescence polarization (PolarScreen PPARγ green), time course; intact protein ESI-MS shows no covalent adduct; type: binding

Question: `CC/C=C\C/C=C\C/C=C\CCCCCCCC(=O)O` [compound 5, α-linolenic acid] was tested. Which “competitive fluorescence polarization of HPLC fraction 5, dilution series” value [1] did it give?
Answer: α-linolenic acid and linoleic acid bind to PPARγ immediately under the assay conditions used

Question: For `CCCCC/C=C\C/C=C\CCCCCCCC(=O)O` [compound 6, linoleic acid], which “competitive fluorescence polarization of HPLC fraction 6, dilution series and ti” value [2] is on record?
Answer: α-linolenic acid and linoleic acid bind to PPARγ immediately under the assay conditions used

Question: `CC/C=C\C/C=C\C/C=C\CCCCCCCC(=O)OC[C@H](CO[C@@H]1O[C@H](CO)[C@H](O)[C@H](O)[C@H]1O)OC(=O)CCCCCCC/C=C\C/C=C\C/C=C\CC` [compound 11, DLGG] was tested. Which IC50 [3] did it give?
Answer: 1.64 µM
